Data: patent US11279703B2, “Fused pyrimidine compounds as BRD4 and JAK2 dual inhibitors and methods for use thereof” (APTOSE BIOSCIENCES INC., priority 2016, dated 2022)
Where two headings read alike, the source gives them in different places.

Columns and labels:
BRD4-BD1 = BRD4-BD1 (Homo sapiens (Human), UniProt O60885); test: AlphaLisa bromodomain binding assay, BRD4-BD1
JAK2 = JAK2 (Homo sapiens (Human), UniProt O60674); test: HTRF kinase assay, JAK2; type: biochemical
[1] = Table 6, read-out: BRD4(1) IC50

Sequence of JAK2 (O60674 whole entry): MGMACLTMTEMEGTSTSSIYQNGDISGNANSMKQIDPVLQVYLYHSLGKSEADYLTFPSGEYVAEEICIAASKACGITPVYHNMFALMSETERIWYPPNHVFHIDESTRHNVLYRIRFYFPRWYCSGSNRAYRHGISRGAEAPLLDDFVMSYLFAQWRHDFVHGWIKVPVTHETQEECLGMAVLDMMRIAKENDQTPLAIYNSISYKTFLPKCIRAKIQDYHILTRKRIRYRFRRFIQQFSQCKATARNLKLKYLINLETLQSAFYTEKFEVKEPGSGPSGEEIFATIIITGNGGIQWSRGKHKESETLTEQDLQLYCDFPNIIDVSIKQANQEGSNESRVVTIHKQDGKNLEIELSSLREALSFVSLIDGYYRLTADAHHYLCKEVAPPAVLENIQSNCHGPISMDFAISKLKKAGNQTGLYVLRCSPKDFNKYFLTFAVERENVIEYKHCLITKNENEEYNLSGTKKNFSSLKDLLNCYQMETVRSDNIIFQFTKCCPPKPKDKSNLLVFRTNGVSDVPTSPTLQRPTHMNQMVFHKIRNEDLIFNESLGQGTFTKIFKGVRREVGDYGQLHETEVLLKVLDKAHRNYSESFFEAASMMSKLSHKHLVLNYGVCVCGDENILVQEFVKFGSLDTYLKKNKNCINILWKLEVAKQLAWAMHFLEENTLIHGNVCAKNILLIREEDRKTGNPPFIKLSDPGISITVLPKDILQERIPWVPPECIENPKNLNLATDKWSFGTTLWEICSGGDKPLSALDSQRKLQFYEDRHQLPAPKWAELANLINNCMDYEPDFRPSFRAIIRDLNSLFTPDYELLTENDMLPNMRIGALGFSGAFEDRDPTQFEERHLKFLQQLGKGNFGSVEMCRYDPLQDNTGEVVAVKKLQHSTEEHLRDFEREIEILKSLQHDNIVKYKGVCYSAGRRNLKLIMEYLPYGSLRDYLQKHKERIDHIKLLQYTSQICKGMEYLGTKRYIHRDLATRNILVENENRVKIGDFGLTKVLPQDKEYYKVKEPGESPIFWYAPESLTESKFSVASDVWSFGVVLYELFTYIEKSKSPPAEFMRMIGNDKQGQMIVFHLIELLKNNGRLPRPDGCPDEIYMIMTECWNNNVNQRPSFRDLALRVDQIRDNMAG

Structure (SMILES) | IC50 (BRD4-BD1; [1]) | IC50 (JAK2; Table 6) | IC50 (BRD4-BD1; Table 5, read-out: BRD4 IC50) | IC50 (JAK2; Table 5)
Cc1cnc(Nc2ccc(N3CCN(C)CC3)cc2)nc1Nc1cccc(NS(=O)(=O)C(C)(C)C)c1 [drawing 276] | 164 nM | 8 nM | – | –
CN1CCN(C(=O)Cc2ccc(Nc3ncc4ccn(-c5ccc(F)c(NS(=O)(=O)C(C)(C)C)c5)c4n3)cc2)CC1 | 643 nM | 239 nM | – | –
CCC1(S(=O)(=O)Nc2cc(-n3ccc4cnc(Nc5ccc(N6CCC(N(C)C)CC6)c(F)c5)nc43)ccc2F)CC1 | 963 nM | 24 nM | – | –
CC(C)(C)S(=O)(=O)Nc1cc(-n2ccc3cnc(Nc4ccc(N5CCNCC5)c(F)c4)nc32)ccc1F [drawing 430] | 125 nM | 76 nM | – | –
Cc1cnc(Nc2ccc(N3CCN(C)CC3)cc2)nc1Nc1cccc(NS(=O)(=O)C(C)(C)C)c1 [drawing 114] | 211 nM | 12 nM | – | –
CN1CCN2c3c(F)cc(Nc4ncc5ccn(-c6ccc(F)c(NS(=O)(=O)C(C)(C)C)c6)c5n4)cc3CC2C1 (centres unmarked) | 383 nM | 56 nM | – | –
CN(C)C(=O)C1CCN(c2ccc(Nc3ncc4ccn(-c5ccc(F)c(NS(=O)(=O)C(C)(C)C)c5)c4n3)cc2F)CC1 | 491 nM | 129 nM | – | –
Cc1cnc(Nc2ccc(N3CCN(C)CC3)cc2)nc1Nc1cccc(NS(=O)(=O)C(C)(C)C)c1 [drawing 391] | 141 nM | 6 nM | – | –
CC(C)(C)S(=O)(=O)N1CCc2ccc(-n3ccc4cnc(Nc5ccc(N6CCNCC6)cc5)nc43)cc21 | 1940 nM | 40 nM | – | –
CN1CCN(c2ccc(Nc3ncc4ccn(-c5ccc(F)c(NS(=O)(=O)C(C)(C)C)c5)c4n3)cc2)CC1 [drawing 340] | 228 nM | 188 nM | – | –
CN(C)C1CCN(c2ccc(Nc3ncc4ccn(-c5cccc(NS(=O)(=O)C(C)(C)C)c5)c4n3)cc2F)CC1 [drawing 385] | 131 nM | 3 nM | – | –
CN1CCN(c2ccc(Nc3ncc4ccn(-c5cccc(CNS(=O)(=O)C(C)(C)C)c5)c4n3)cc2)CC1 | 8300 nM | 3 nM | – | –
CN(C)C1CCN2c3ccc(Nc4ncc5ccn(-c6cccc(NS(=O)(=O)C(C)(C)C)c6)c5n4)cc3CC2C1 (centres unmarked) [drawing 444] | 268 nM | 8 nM | – | –
CN1CCCc2cc(Nc3ncc4ccn(-c5cccc(NS(=O)(=O)C(C)(C)C)c5)c4n3)ccc21 | 800 nM | 70 nM | – | –
CNC(=O)N1CCN(c2ccc(Nc3ncc4ccn(-c5cccc(NS(=O)(=O)C(C)(C)C)c5)c4n3)cc2)CC1 | 3200 nM | 19 nM | – | –
CN1CCN2c3c(F)cc(Nc4ncc5ccn(-c6cccc(NS(=O)(=O)C(C)(C)C)c6)c5n4)cc3CC2C1 (centres unmarked) | 571 nM | 14 nM | – | –
CN1CCN2c3ccc(Nc4ncc5ccn(-c6cccc(NS(=O)(=O)C(C)(C)C)c6)c5n4)cc3CC2C1 (centres unmarked) | 366 nM | 14 nM | – | –
CN1CCN(c2ccc(Nc3ncc4ccn(-c5ccc(Cl)c(NS(=O)(=O)C(C)(C)C)c5)c4n3)cc2)CC1 | 481 nM | 165 nM | – | –
CC(C)(C)S(=O)(=O)Nc1cccc(Nc2nc(NC3CCN(c4ccccc4)CC3)nc3sccc23)c1 | 10000 nM | 10000 nM | – | –
CNCCNC(=O)Cc1ccc(Nc2ncc3ccn(-c4ccc(F)c(NS(=O)(=O)C(C)(C)C)c4)c3n2)cc1F | 142 nM | 251 nM | – | –
CNCCNc1ccc(Nc2ncc3ccn(-c4cccc(NS(=O)(=O)C(C)(C)C)c4)c3n2)cc1 | 407 nM | 24 nM | – | –
CN1CCN(c2ccc(Nc3ncc4ccn(-c5ccc(C#N)c(NS(=O)(=O)C6CC6)c5)c4n3)cc2)CC1 | 1800 nM | 78 nM | – | –
O=S(=O)(Nc1cc(-n2ccc3cnc(Nc4ccc(N5CCNCC5)cc4)nc32)ccc1F)C1CC1 | 1040 nM | 14.3 nM | – | –
Cc1cnc(Nc2ccc(N3CCN(C)CC3)cc2)nc1-n1ccc2c1CCNC2=O | 5720 nM | 5920 nM | – | –
CN1CCN(c2ccc(Nc3ccc4ccn(-c5cccc(NS(=O)(=O)C(C)(C)C)c5)c4n3)cc2)CC1 | 10000 nM | 10000 nM | – | –
CN1CCC(Nc2nc(Nc3ccc4c(c3)N(S(=O)(=O)C(C)(C)C)CC4)c3ccsc3n2)CC1 [drawing 407] | 315 nM | 10000 nM | – | –
O=S(=O)(Nc1cccc(-n2ccc3cnc(Nc4ccc(C5CCNCC5)cc4)nc32)c1)C1CC1 | 3210 nM | 71 nM | – | –
CC(C)(C)S(=O)(=O)Nc1cc(-n2ccc3cnc(Nc4ccc(C5CCNCC5)cc4)nc32)ccc1F | 475 nM | 1600 nM | – | –

Structure (SMILES) | IC50 (BRD4-BD1; [1]) | IC50 (JAK2; Table 6) | IC50 (BRD4-BD1; Table 5, read-out: BRD4 IC50) | IC50 (JAK2; Table 5)
CN(c1cccc(Nc2nc(NC3CCNCC3)nc3sccc23)c1)S(=O)(=O)C(C)(C)C | 870 nM | 10000 nM | – | –
COc1cc(Nc2ncc3ccn(-c4ccc(F)c(NS(=O)(=O)C(C)(C)C)c4)c3n2)ccc1N1CCN(C)CC1 | 272 nM | 90 nM | – | –
CC(C)(C)S(=O)(=O)Nc1cc(-n2ccc3cnc(Nc4ccc(N5CCNC(=O)C5)c(F)c4)nc32)ccc1F | 295 nM | 142 nM | – | –
CC(C)(C)S(=O)(=O)Nc1cccc(Nc2nc(NC3CCNCC3)nc3sccc23)c1 [drawing 267] | 590 nM | 10000 nM | – | –
CNCC1CCN(c2ccc(Nc3ncc4c(n3)N(c3cccc(NS(=O)(=O)C(C)(C)C)c3)CC4)cc2F)CC1 | 580 nM | 9 nM | – | –
CNCCOc1ccc(Nc2ncc3ccn(-c4cccc(NS(=O)(=O)C(C)(C)C)c4)c3n2)cc1F [drawing 467] | 1300 nM | 79 nM | – | –
CN1CCN2c3ccc(Nc4ncc5scc(-c6cccc(NS(=O)(=O)C(C)(C)C)c6)c5n4)cc3CC2C1 (centres unmarked) | 607 nM | 2 nM | – | –
Cc1cnc(Nc2ccc(N3CCN(C)CC3)cc2)nc1Nc1cccc(NS(=O)(=O)C(C)(C)C)c1 [drawing 281] | 228 nM | 10 nM | – | –
CC(C)S(=O)(=O)Nc1cccc(-n2ccc3cnc(Nc4ccc(N5CCN(C)CC5)cc4)nc32)c1 | 1020 nM | 8.2 nM | – | –
CN1CCN(c2ccc(Nc3ncc4ccn(-c5ccc6c(c5)N(S(=O)(=O)C(C)(C)C)CC6)c4n3)cc2F)CC1 | 1300 nM | 38 nM | – | –
Cc1cnc(Nc2ccc(N3CCN(C)CC3)cc2)nc1Nc1cccc(NS(=O)(=O)C(C)(C)C)c1 [drawing 321] | 166 nM | 13 nM | – | –
CCC1(S(=O)(=O)Nc2cccc(-n3ccc4cnc(Nc5ccc(N6CCC(N(C)C)CC6)c(F)c5)nc43)c2)CC1 | 1500 nM | 5 nM | – | –
CNc1nc(NC2CCNCC2)nc2c1ccn2-c1cccc(NS(=O)(=O)C(C)(C)C)c1 | 774 nM | 10000 nM | – | –
CN(C)C1CCN(c2ccc(Nc3ncc4ccn(-c5cccc(NS(=O)(=O)C(C)(C)C)c5)c4n3)cc2F)CC1 [drawing 76] | – | – | 131 nM | 3 nM
CC1CNCC(C)C1Nc1nc(Nc2cccc(NS(=O)(=O)C(C)(C)C)c2)c2ccsc2n1 (centres unmarked) | 10000 nM | 10000 nM | – | –
CNCCNC(=O)Cc1ccc(Nc2ncc3ccn(-c4ccc(F)c(NS(=O)(=O)C(C)(C)C)c4)c3n2)cc1 | 193 nM | 359 nM | – | –
CC(=O)N1CCC(c2ccc(Nc3ncc4ccn(-c5cccc(NS(=O)(=O)C6CC6)c5)c4n3)cc2)CC1 | 10000 nM | 140 nM | – | –
CNC(=O)C1CCN(c2ccc(Nc3ncc4ccn(-c5ccc(F)c(NS(=O)(=O)C(C)(C)C)c5)c4n3)cc2F)CC1 | 735 nM | 123 nM | – | –
CCC1(S(=O)(=O)Nc2cccc(-n3ccc4cnc(Nc5ccc(N6CCC(N(C)C)CC6)cc5)nc43)c2)CC1 | 1400 nM | 4.7 nM | – | –
CN(C)C1CCN(c2ccc(Nc3ncc4scc(-c5cccc(NS(=O)(=O)C(C)(C)C)c5)c4n3)cc2)CC1 | 368 nM | 3 nM | – | –
CN1CCN(c2ccc(Nc3ncc4scc(-c5ccc(F)c(NS(=O)(=O)C(C)(C)C)c5)c4n3)cc2F)CC1 | 228 nM | 36 nM | – | –
CN1CCN(c2ccc(Nc3ncc4ccn(-c5cccc(NS(=O)(=O)C(C)(C)C)c5)c4n3)cc2C(N)=O)CC1 | 577 nM | 72 nM | – | –
Cc1ccc(-n2ccc3cnc(Nc4ccc(N5CCNCC5)cc4)nc32)cc1NS(=O)(=O)C(C)(C)C | 641 nM | 176 nM | – | –
CN1CCN(c2ccc(Nc3nc(Nc4cccc(NS(=O)(=O)C(C)(C)C)c4)c4cc[nH]c4n3)cc2)CC1 | 1680 nM | 32 nM | – | –
CN1CCC(NC(=O)c2ccc(Nc3ncc4ccn(-c5cccc(NS(=O)(=O)C6CC6)c5)c4n3)cc2)CC1 | 1900 nM | 44 nM | – | –
CC(C)(C)S(=O)(=O)Nc1cc(-n2ccc3cnc(Nc4ccc(N5CCC(C(=O)O)CC5)c(F)c4)nc32)ccc1F | 1100 nM | 120 nM | – | –
CN(C)C1CCN(c2ccc(Nc3ncc4ccn(-c5ccc(F)c(NS(=O)(=O)C(C)(C)C)c5)c4n3)cc2)CC1 | 258 nM | 82 nM | – | –
